The record followed here is patent US11453660B2, “Androgen receptor and glucocorticoid receptor modulators” (ONCOSTELLAE, S.L., priority 2017, dated 2022).

Structures can show the parent of a compound that is named as a salt.

The experiment has as its target T1, Rat Androgen Receptor (Rattus norvegicus, UniProt P15207).
T1 construct: purchased Life Technologies A15880
T1 sequence (P15207 646-902 limits assumed): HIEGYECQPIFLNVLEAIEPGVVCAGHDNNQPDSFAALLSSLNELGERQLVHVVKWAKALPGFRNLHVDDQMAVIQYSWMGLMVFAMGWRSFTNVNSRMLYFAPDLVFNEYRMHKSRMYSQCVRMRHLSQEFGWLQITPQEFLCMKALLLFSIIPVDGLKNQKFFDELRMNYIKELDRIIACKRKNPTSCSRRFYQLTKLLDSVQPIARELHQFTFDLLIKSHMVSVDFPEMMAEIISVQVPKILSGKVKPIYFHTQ
In words: Rat Androgen Receptor Binding (polarscreen AR competitor assay, fluorescence polarization). Particulars: displacement of Fluormone AL Green, 4 hours at RT, read-out: AR rat-fluorimetric. As for the experimental part: Pharmacological Activity Rat Androgen Receptor Binding
The assay was carried out following the instructions of polarscreen AR competitor assay green kit (Life Technologies, Cat #.: A15880). Briefly, the test is based on measuring the changes of fluorescence polarization shown by the Fluormone AL Green. Thus, when the Fluormone is bound to the receptor, a fluorescence polarization is observed that diminishes when a ligand competes for the receptor binding site and the Fluormone gets displaced.
The inhibition values for each of the compounds are measured in duplicate at 1 and 10 μM and the plate is incubated for 4 hours at RT. Fluorescence polarization is the measured in a Tecan Infinite M1000 Pro reader (λexc=485 nm, λem=535 nm). In order to obtain a dose-response curve and calculate the potency of inhibition (expressed as IC50) for AR, a series of 1:10 dilutions in test in 1× buffer from 10 μM to 0.1 nM for each compound was carried out.
As to `CC(=O)C1=C(C)NC(C)=C(C(C)=O)C1c1csc2ccc(C#N)cc12` [Example H7, 3-(3,5-diacetyl-2,6-dimethyl-1,4-dihydropyridin-4-yl)benzo[b]thiophene-5-carbonitrile], the IC50 is at least 1000 nM.
The value for `COC(=O)C1=C(C)NC(C)=C(C(C)=O)C1c1csc2ccncc12` (stereo not shown) [Example J19, Methyl 5-acetyl-2,6-dimethyl-4-(thieno[3,2-c]pyridin-3-yl)-1,4-dihydropyridine-3-carboxylate] was at least 1000 nM.
In the case of `COC(=O)C1=C(N)NC(C)=C(C(C)=O)C1c1csc2ccccc12` (stereo not shown) [Example K1, Methyl 5-acetyl-2-amino-4-(benzo[b]thiophen-3-yl)-6-methyl-1,4-dihydropyridine-3-carboxylate hydrochloride], the IC50 was in the range of 100 to 1000 nM.
The value for `CC(=O)C1=C(C)NC(C)=C(C(C)=O)C1c1csc2cc(O)ccc12` [Example G2, 1,1′-(4-(6-hydroxybenzo[b]thiophen-3-yl)-2,6-dimethyl-1,4-dihydropyridine-3,5-diyl)bis(ethan-1-one)] was at least 1000 nM; that for `COC(=O)C1=C(C)NC(C)=C(C(C)=O)C1c1csc2cnccc12` (stereo not shown) [Example J20, Methyl 5-acetyl-2,6-dimethyl-4-(thieno[2,3-c]pyridin-3-yl)-1,4-dihydropyridine-3-carboxylate] was 100 to 1000 nM.
The value for `COC(=O)C1=C(C)NC(C)=C(C(C)=O)C1c1csc2ccc(C(=O)NCC3CC3)cc12` (stereo not shown) [Example J16, Methyl 5-acetyl-4-(5-((cyclopropylmethyl)carbamoyl)benzo[b]thiophen-3-yl)-2,6-dimethyl-1,4-dihydropyridine-3-carboxylate] was at least 1000 nM.
Under `CC(=O)C1=C(C)NC(C)=C(C(C)=O)C1c1csc2ccc(C(=O)NC3CC3)cc12` [Example H9, N-cyclopropyl-3-(3,5-diacetyl-2,6-dimethyl-1,4-dihydropyridin-4-yl)benzo[b]thiophene-5-carboxamide] stands at least 1000 nM; under `CC(=O)C1=C(C)NC(C)=C(C(C)=O)C1c1csc2ccc(Br)cc12` [Example H2, 1,1′-(4-(5-bromobenzo[b]thiophen-3-yl)-2,6-dimethyl-1,4-dihydropyridine-3,5-diyl)diethanone], below 100 nM; under `COC(=O)C1=C(C2CC2)NC(C2CC2)=C(C(C)=O)C1c1csc2ccccc12` (stereo not shown) [Example J24, Methyl 5-acetyl-4-(benzo[b]thiophen-3-yl)-2,6-dicyclopropyl-1,4-dihydropyridine-3-carboxylate], at least 1000 nM.
As to `CC(=O)C1=C(C)NC(C)=C(C(C)=O)C1c1csc2ccc(C(=O)N3CCOCC3)cc12` [Example H12, 1,1′-(2,6-Dimethyl-4-(5-(morpholine-4-carbonyl)benzo[b]thiophen-3-yl)-1,4-dihydropyridine-3,5-diyl)bis(ethan-1-one)], the IC50 is at least 1000 nM.
Regarding `CC(=O)C1=C(C)NC(C)=C(C(C)=O)C1c1csc2ccc(N3CCOCC3)cc12` [Example H4, 1,1′-(2,6-dimethyl-4-(5-morpholinobenzo[b]thiophen-3-yl)-1,4-dihydropyridine-3,5-diyl)bis(ethan-1-one)], the IC50 was at least 1000 nM.
The value for `COC(=O)C1=C(C)NC(C)=C(C(C)=O)C1c1csc2ccc(C(=O)O)cc12` (stereo not shown) [Example J14, 3-(3-acetyl-5-(methoxycarbonyl)-2,6-dimethyl-1,4-dihydropyridin-4-yl)benzo[b]thiophene-5-carboxylic acid] was at least 1000 nM.
The value for `COC(=O)C1=C(C)NC(C)=C(C(C)=O)C1c1csc2ccccc12` (racemic) [Example A1, Methyl 5-acetyl-4-(benzo[b]thiophen-3-yl)-2,6-dimethyl-1,4-dihydro-pyridine-3-carboxylate] was below 100 nM.
Under `CC(=O)C1=C(C)NC(C)=C(S(C)(=O)=O)C1c1csc2ccccc12` (stereo not shown) [Example J10, 1-(4-(benzo[b]thiophen-3-yl)-2,6-dimethyl-5-(methylsulfonyl)-1,4-dihydro-pyridin-3-yl)ethanone] stands 100 to 1000 nM; under `CC(=O)C1=C(C)NC(C)=C(C(=O)OC2CCC(C)(C)CC2)C1c1csc2ccccc12` (stereo not shown) [Example C27, 4,4-dimethylcyclohexyl 5-acetyl-4-(benzo[b]thiophen-3-yl)-2,6-dimethyl-1,4-dihydropyridine-3-carboxylate], at least 1000 nM; under `CC(=O)C1=C(C)NC(C)=C(C(=O)OC2CCC2)C1c1csc2ccccc12` (stereo not shown) [Example C28, Cyclobutyl 5-acetyl-4-(benzo[b]thiophen-3-yl)-2,6-dimethyl-1,4-dihydropyridine-3-carboxylate], 100 to 1000 nM.
As to `COC(=O)C1=C(C)NC(C)=C(C(C)=O)C1c1csc2ccc(C(=O)N3CCN(C)CC3)cc12` (stereo not shown) [Example J17, Methyl 5-acetyl-2,6-dimethyl-4-(5-(4-methylpiperazine-1-carbonyl)benzo[b]thiophen-3-yl)-1,4-dihydropyridine-3-carboxylate], the IC50 was at least 1000 nM.
Under `CC(=O)C1=C(C)NC(C)=C(C(=O)OCC2CC2)C1c1csc2ccc(F)cc12` (stereo not shown) [Example C21, Cyclopropylmethyl 5-acetyl-4-(5-fluorobenzo[b]thiophen-3-yl)-2,6-dimethyl-1,4-dihydropyridine-3-carboxylate] stands below 100 nM; under `CC(=O)C1=C(C)NC(C)=C(C(=O)OC2CCCCC2)C1c1csc2ccccc12` (stereo not shown) [Example C3, Cyclohexyl 5-acetyl-4-(benzo[b]thiophen-3-yl)-2,6-dimethyl-1,4-dihydropyridine-3-carboxylate], below 100 nM.
Under `COC(=O)C1=C(C)NC(C)=C(C(C)=O)C1c1csc2ccccc12` (single isomer, unassigned) [Example A3, Methyl 5-acetyl-4-(benzo[b]thiophen-3-yl)-2,6-dimethyl-1,4-dihydro-pyridine-3-carboxylate] stands below 100 nM; under `CC(=O)C1=C(C)NC(C)=C(C(=O)OC2CCOCC2)C1c1csc2ccccc12` (stereo not shown) [Example C1, Tetrahydro-2H-pyran-4-yl 5-acetyl-4-(benzo[b]thiophen-3-yl)-2,6-dimethyl-1,4-dihydropyridine-3-carboxylate], 100 to 1000 nM.
The value for `COC(=O)C1=C(C)NC(C)=C(C(C)=O)C1c1csc2ccc(C#N)cc12` (stereo not shown) [Example J13, Methyl 5-acetyl-4-(5-cyanobenzo[b]thiophen-3-yl)-2,6-dimethyl-1,4-dihydropyridine-3-carboxylate] was at least 1000 nM; that for `CC(=O)C1=C(C)NC(C)=C(C(C)=O)C1c1csc2ccc(C(=O)NCC3CC3)cc12` [Example H10, N-(cyclopropylmethyl)-3-(3,5-diacetyl-2,6-dimethyl-1,4-dihydropyridin-4-yl)benzo[b]thiophene-5-carboxamide] was at least 1000 nM.
With `COC(=O)C1=C(C)NC(C)=C(C(C)=O)C1c1csc2ccc(Cl)cc12` (stereo not shown) [Example J3, Methyl 5-acetyl-4-(5-chlorobenzo[b]thiophen-3-yl)-2,6-dimethyl-1,4-dihydropyridine-3-carboxylate], the IC50 fell in the range of 100 to 1000 nM.
Under `COCC1=C(C(C)=O)C(c2csc3ccccc23)C(C(=O)OC)=C(C)N1` (stereo not shown) [Example C19, Methyl 5-acetyl-4-(benzo[b]thiophen-3-yl)-6-(methoxymethyl)-2-methyl-1,4-dihydropyridine-3-carboxylate] stands at least 1000 nM.
